Test results taken from US20030134892A1, “Compositions for treatment of head and neck cancers, and methods of making and using the same” (priority 2001, published 2003).

What was measured:
[1] = system: JHU012 cells; experiment: Experiment 1: human orthotopic squamous cell head and neck cancer model, tumor size after treatment; type: in vivo, Nu/nu mice; conditions: 45 days following treatment
Method: The efficacy of paclitaxel microsphere formulations in human orthotopic squamous cell head and neck cancer models were tested below.
Nu/nu mice were injected with 1×10^7 JHU012 cells into the anterior floor of mouth near the genial tubercle of the mandible. 12 days following cell injection, the tumors were approximately 80 mm^3. […] 45 days following treatment, the animals were sacrificed and tumors measured again.

[2] = system: human head and neck cancer cell line; experiment: Experiment 2: human tumor model with radiation, orthotopic tumor in the neck of a nude mouse; type: in vivo; conditions: injected intratumorally three week post cell injection, followed by fractionated radiation (RT) 2 gy/day for 4 days
Method: In this study, the model is also a human head and neck cancer cell line but the tumor was grown orthotopically in the neck of a nude mouse. Three week post cell injection the tumors were injected intratumorally with paclimer and then followed by fractionated radiation, 2 gy/day for 4 days.

## O=c1[nH]cc(F)c(=O)[nH]1 [5-fu, 5-fluorouracil]
[1]; 0.15 mmol/kg/day oral, 4 days
  Tumor Size at end of Experiment 1: 518.7 ± 96.3 mm^3

## CC(=O)O[C@H]1C(=O)[C@@]2(C)[C@H]([C@H](OC(=O)c3ccccc3)[C@]3(O)C[C@H](OC(=O)[C@H](O)[C@@H](NC(=O)c4ccccc4)c4ccccc4)C(C)=C1C3(C)C)[C@]1(OC(C)=O)CO[C@@H]1C[C@@H]2O [ptx, paclitaxel]
[1]; 24 mg/kg i.p., tumors approx. 80 mm^3 at treatment
  Tumor Size at end of Experiment 1: 973.3 ± 91.7 mm^3
[2]
  Tumor Size: 102.3 ± 37.0 mm^3
